Reference: the NIST ThermoML archive (doi:10.1016/j.jct.2015.11.008)
± gives the expanded uncertainty stated by the source.

How the values were obtained:
[1] = 298.15 K, 101.33 kPa, Liquid; for mass density: Vibrating tube method
[2] = xn = mol fraction of the nth substance listed; conditions: 298.15 K, 101 kPa, Liquid; for mass density: Vibrating tube method
[3] = Concentric cylinders viscometry
[4] = Falling or rolling sphere viscometry
[5] = Concentric cylinders viscometry, x2 = 0.01995
[6] = Falling or rolling sphere viscometry, x2 = 0.01995

CCCC[n+]1ccc(C)cc1.O=S(=O)([N-]S(=O)(=O)C(F)(F)F)C(F)(F)F
viscosity [1, 3]: 55.7 ± 2.3 mPa·s
viscosity [1, 4]: 56.1 ± 2.4 mPa·s
mass density [1]: 1412.3 ± 2.1 kg/m3

CCCC[n+]1ccn(C)c1.O=S(=O)([N-]S(=O)(=O)C(F)(F)F)C(F)(F)F
viscosity [1, 3]: 50.9 ± 2.1 mPa·s
viscosity [1, 4]: 51.5 ± 2.1 mPa·s
mass density [1]: 1436.3 ± 2.1 kg/m3

CCCC[n+]1ccc(C)cc1.O=S(=O)([N-]S(=O)(=O)C(F)(F)F)C(F)(F)F + O
viscosity ([2]; Concentric cylinders viscometry, x2 = 0.00167): 55.7 ± 2.3 mPa·s
viscosity ([2]; Concentric cylinders viscometry, x2 = 0.00513): 55.3 ± 2.2 mPa·s
viscosity ([2]; Concentric cylinders viscometry, x2 = 0.01053): 54.8 ± 2.2 mPa·s
viscosity ([2]; Concentric cylinders viscometry, x2 = 0.01985): 53.9 ± 2.2 mPa·s
viscosity ([2]; Concentric cylinders viscometry, x2 = 0.04978): 50.4 ± 2 mPa·s
viscosity ([2]; Concentric cylinders viscometry, x2 = 0.1002): 45.6 ± 1.9 mPa·s
viscosity ([2]; Falling or rolling sphere viscometry, x2 = 0.00167): 56.1 ± 2.4 mPa·s
viscosity ([2]; Falling or rolling sphere viscometry, x2 = 0.00513): 56 ± 2.3 mPa·s
viscosity ([2]; Falling or rolling sphere viscometry, x2 = 0.01053): 55.1 ± 2.3 mPa·s
viscosity ([2]; Falling or rolling sphere viscometry, x2 = 0.01985): 54.2 ± 2.3 mPa·s
viscosity ([2]; Falling or rolling sphere viscometry, x2 = 0.04978): 51.3 ± 2.1 mPa·s
viscosity ([2]; Falling or rolling sphere viscometry, x2 = 0.1002): 46 ± 1.9 mPa·s
mass density ([2]; x2 = 0.00167): 1412.27 ± 2.1 kg/m3
mass density ([2]; x2 = 0.00513): 1412.02 ± 2.1 kg/m3
mass density ([2]; x2 = 0.01053): 1411.94 ± 2.1 kg/m3
mass density ([2]; x2 = 0.01985): 1411.55 ± 2.1 kg/m3
mass density ([2]; x2 = 0.04978): 1410.48 ± 2.1 kg/m3
mass density ([2]; x2 = 0.1002): 1408.83 ± 2.1 kg/m3

CCCC[n+]1ccn(C)c1.O=S(=O)([N-]S(=O)(=O)C(F)(F)F)C(F)(F)F + O
viscosity ([2]; Concentric cylinders viscometry, x2 = 0.00078): 50.9 ± 2.1 mPa·s
viscosity ([2]; Concentric cylinders viscometry, x2 = 0.00473): 50.6 ± 2.1 mPa·s
viscosity ([2]; Concentric cylinders viscometry, x2 = 0.0101): 49.9 ± 2 mPa·s
viscosity ([2]; Concentric cylinders viscometry, x2 = 0.01864): 49.3 ± 2 mPa·s
viscosity ([2]; Concentric cylinders viscometry, x2 = 0.05002): 45.9 ± 1.9 mPa·s
viscosity ([2]; Concentric cylinders viscometry, x2 = 0.1001): 41.7 ± 1.7 mPa·s
viscosity ([2]; Falling or rolling sphere viscometry, x2 = 0.00078): 51.5 ± 2.1 mPa·s
viscosity ([2]; Falling or rolling sphere viscometry, x2 = 0.00473): 50.8 ± 2.1 mPa·s
viscosity ([2]; Falling or rolling sphere viscometry, x2 = 0.0101): 50.5 ± 2.1 mPa·s
viscosity ([2]; Falling or rolling sphere viscometry, x2 = 0.01864): 49.4 ± 2.1 mPa·s
viscosity ([2]; Falling or rolling sphere viscometry, x2 = 0.05002): 46.8 ± 2 mPa·s
viscosity ([2]; Falling or rolling sphere viscometry, x2 = 0.1001): 42.3 ± 1.8 mPa·s
mass density ([2]; x2 = 0.00078): 1436.26 ± 2.1 kg/m3
mass density ([2]; x2 = 0.00473): 1436.04 ± 2.1 kg/m3
mass density ([2]; x2 = 0.0101): 1435.89 ± 2.1 kg/m3
mass density ([2]; x2 = 0.01864): 1435.57 ± 2.1 kg/m3
mass density ([2]; x2 = 0.05002): 1434.5 ± 2.1 kg/m3
mass density ([2]; x2 = 0.1001): 1432.47 ± 2.1 kg/m3

CCCCn1cc[n+](C)c1.F[B-](F)(F)F [1-butyl-3-methylimidazolium tetrafluoroborate]
viscosity [1, 3]: 108 ± 4.5 mPa·s
viscosity [1, 4]: 111.9 ± 5.6 mPa·s
mass density [1]: 1201.7 ± 2 kg/m3

CCCCn1cc[n+](C)c1.F[B-](F)(F)F [1-butyl-3-methylimidazolium tetrafluoroborate] + O
viscosity ([2]; Concentric cylinders viscometry, x2 = 0.00062): 108 ± 4.5 mPa·s
viscosity ([2]; Concentric cylinders viscometry, x2 = 0.005): 105.9 ± 4.4 mPa·s
viscosity ([2]; Concentric cylinders viscometry, x2 = 0.00993): 103.7 ± 4.3 mPa·s
viscosity [2, 5]: 99.5 ± 4.1 mPa·s
viscosity ([2]; Concentric cylinders viscometry, x2 = 0.04989): 87.9 ± 3.6 mPa·s
viscosity ([2]; Concentric cylinders viscometry, x2 = 0.09965): 71.4 ± 2.9 mPa·s
viscosity ([2]; Falling or rolling sphere viscometry, x2 = 0.00062): 111.9 ± 5.6 mPa·s
viscosity ([2]; Falling or rolling sphere viscometry, x2 = 0.005): 107.4 ± 5.3 mPa·s
viscosity ([2]; Falling or rolling sphere viscometry, x2 = 0.00993): 106.5 ± 5.2 mPa·s
viscosity [2, 6]: 99.9 ± 4.8 mPa·s
viscosity ([2]; Falling or rolling sphere viscometry, x2 = 0.04989): 89.6 ± 4.1 mPa·s
viscosity ([2]; Falling or rolling sphere viscometry, x2 = 0.09965): 72.5 ± 3.2 mPa·s
mass density ([2]; x2 = 0.00062): 1201.69 ± 2 kg/m3
mass density ([2]; x2 = 0.005): 1201.55 ± 2 kg/m3
mass density ([2]; x2 = 0.00993): 1201.36 ± 2 kg/m3
mass density ([2]; x2 = 0.01995): 1201.1 ± 2 kg/m3
mass density ([2]; x2 = 0.04989): 1200.18 ± 2 kg/m3
mass density ([2]; x2 = 0.09965): 1198.59 ± 2 kg/m3

CCCCn1cc[n+](C)c1.O=S(=O)([O-])C(F)(F)F [1-butyl-3-methylimidazolium trifluoromethanesulfonate]
viscosity [1, 3]: 90.7 ± 3.8 mPa·s
viscosity [1, 4]: 92.8 ± 4.3 mPa·s
mass density [1]: 1298.3 ± 2 kg/m3

CCCCn1cc[n+](C)c1.O=S(=O)([O-])C(F)(F)F [1-butyl-3-methylimidazolium trifluoromethanesulfonate] + O
viscosity ([2]; Concentric cylinders viscometry, x2 = 0.00022): 90.7 ± 3.8 mPa·s
viscosity ([2]; Concentric cylinders viscometry, x2 = 0.00612): 89.2 ± 3.7 mPa·s
viscosity ([2]; Concentric cylinders viscometry, x2 = 0.01): 88.2 ± 3.6 mPa·s
viscosity ([2]; Concentric cylinders viscometry, x2 = 0.01738): 86.2 ± 3.6 mPa·s
viscosity ([2]; Concentric cylinders viscometry, x2 = 0.04999): 79.7 ± 3.3 mPa·s
viscosity ([2]; Concentric cylinders viscometry, x2 = 0.1003): 70.4 ± 2.9 mPa·s
viscosity ([2]; Falling or rolling sphere viscometry, x2 = 0.00022): 92.7 ± 4.3 mPa·s
viscosity ([2]; Falling or rolling sphere viscometry, x2 = 0.00612): 91.3 ± 4.2 mPa·s
viscosity ([2]; Falling or rolling sphere viscometry, x2 = 0.01): 89.6 ± 4.1 mPa·s
viscosity ([2]; Falling or rolling sphere viscometry, x2 = 0.01738): 87.9 ± 4 mPa·s
viscosity ([2]; Falling or rolling sphere viscometry, x2 = 0.04999): 81.3 ± 3.7 mPa·s
viscosity ([2]; Falling or rolling sphere viscometry, x2 = 0.1003): 70.6 ± 3.1 mPa·s
mass density ([2]; x2 = 0.00022): 1298.32 ± 2 kg/m3
mass density ([2]; x2 = 0.00612): 1298.12 ± 2 kg/m3
mass density ([2]; x2 = 0.01): 1297.98 ± 2 kg/m3
mass density ([2]; x2 = 0.01738): 1297.72 ± 2 kg/m3
mass density ([2]; x2 = 0.04999): 1296.84 ± 2 kg/m3
mass density ([2]; x2 = 0.1003): 1295.4 ± 2 kg/m3

CCCC[N+](C)(C)C.O=S(=O)([N-]S(=O)(=O)C(F)(F)F)C(F)(F)F [butyltrimethylammonium bis(trifluoromethylsulfonyl)imide]
viscosity [1, 3]: 104.9 ± 4.4 mPa·s
viscosity [1, 4]: 104 ± 5 mPa·s
mass density [1]: 1392.9 ± 2.1 kg/m3

CCCC[N+](C)(C)C.O=S(=O)([N-]S(=O)(=O)C(F)(F)F)C(F)(F)F [butyltrimethylammonium bis(trifluoromethylsulfonyl)imide] + O
viscosity ([2]; Concentric cylinders viscometry, x2 = 6e-05): 104 ± 4.3 mPa·s
viscosity ([2]; Concentric cylinders viscometry, x2 = 0.00494): 103.5 ± 4.3 mPa·s
viscosity ([2]; Concentric cylinders viscometry, x2 = 0.01002): 101.4 ± 4.2 mPa·s
viscosity [2, 5]: 98.6 ± 4.1 mPa·s
viscosity ([2]; Concentric cylinders viscometry, x2 = 0.05012): 87.3 ± 3.6 mPa·s
viscosity ([2]; Concentric cylinders viscometry, x2 = 0.09979): 73 ± 3 mPa·s
viscosity ([2]; Falling or rolling sphere viscometry, x2 = 6e-05): 105 ± 5.1 mPa·s
viscosity ([2]; Falling or rolling sphere viscometry, x2 = 0.00494): 103.6 ± 5 mPa·s
viscosity ([2]; Falling or rolling sphere viscometry, x2 = 0.01002): 102.8 ± 5 mPa·s
viscosity [2, 6]: 99.6 ± 4.8 mPa·s
viscosity ([2]; Falling or rolling sphere viscometry, x2 = 0.05012): 88.2 ± 4.1 mPa·s
viscosity ([2]; Falling or rolling sphere viscometry, x2 = 0.09979): 73 ± 3.2 mPa·s
mass density ([2]; x2 = 6e-05): 1392.89 ± 2.1 kg/m3
mass density ([2]; x2 = 0.00494): 1392.7 ± 2.1 kg/m3
mass density ([2]; x2 = 0.01002): 1392.61 ± 2.1 kg/m3
mass density ([2]; x2 = 0.01995): 1392.23 ± 2.1 kg/m3
mass density ([2]; x2 = 0.05012): 1391.7 ± 2.1 kg/m3
mass density ([2]; x2 = 0.09979): 1390.15 ± 2 kg/m3
